The source made the active and inactive calls.
How the values were obtained:
[1] = A cytotoxicity screen of small molecule inhibitors of the PhoP region in Salmonella typhi identified in the primary screen. [Related pubchem assays: 1850, 1864, 1985 ]; format: functional
[2] = target: T1, Short transient receptor potential channel 4 (Mus musculus, UniProt Q9QUQ5); assay: mouse TRPC4 channel inhibitors, dose response, cell-based, HEK293 TRPC4/mu-opioid, Fluo-4 calcium (AID 434942); format: functional;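 also: potency of inhibitors blocking the TRPC4 calcium response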
T1 sequence (Q9QUQ5 whole entry): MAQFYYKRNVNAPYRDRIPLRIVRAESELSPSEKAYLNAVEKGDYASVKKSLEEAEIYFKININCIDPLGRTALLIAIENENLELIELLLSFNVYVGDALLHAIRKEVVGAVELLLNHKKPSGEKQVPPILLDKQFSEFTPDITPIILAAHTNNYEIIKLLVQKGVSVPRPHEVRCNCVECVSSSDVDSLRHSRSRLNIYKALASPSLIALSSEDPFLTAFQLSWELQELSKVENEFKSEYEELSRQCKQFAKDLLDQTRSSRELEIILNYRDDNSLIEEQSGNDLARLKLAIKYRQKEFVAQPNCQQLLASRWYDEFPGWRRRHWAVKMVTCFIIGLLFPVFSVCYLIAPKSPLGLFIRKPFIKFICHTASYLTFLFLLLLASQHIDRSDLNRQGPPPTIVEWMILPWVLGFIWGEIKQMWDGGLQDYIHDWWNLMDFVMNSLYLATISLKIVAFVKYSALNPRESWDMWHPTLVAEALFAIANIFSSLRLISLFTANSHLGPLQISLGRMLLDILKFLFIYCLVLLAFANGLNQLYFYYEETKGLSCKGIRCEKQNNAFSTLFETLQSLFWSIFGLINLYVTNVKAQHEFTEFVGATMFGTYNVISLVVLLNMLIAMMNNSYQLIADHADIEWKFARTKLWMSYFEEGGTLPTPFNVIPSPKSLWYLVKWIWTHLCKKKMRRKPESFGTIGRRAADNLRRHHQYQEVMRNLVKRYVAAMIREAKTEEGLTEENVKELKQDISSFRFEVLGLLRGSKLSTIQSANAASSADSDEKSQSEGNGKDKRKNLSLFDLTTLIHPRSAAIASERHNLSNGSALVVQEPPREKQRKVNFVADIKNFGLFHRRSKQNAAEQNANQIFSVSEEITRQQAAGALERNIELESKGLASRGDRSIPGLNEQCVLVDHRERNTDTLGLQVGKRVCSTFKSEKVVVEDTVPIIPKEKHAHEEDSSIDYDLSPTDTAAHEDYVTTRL

[3] = target: Nucleotide-binding oligomerization domain-containing protein 2 (Homo sapiens, UniProt Q9HC29); assay: PubChem AID 2334; format: functional
[4] = target: T2, Nucleotide-binding oligomerization domain-containing protein 1 (Homo sapiens, UniProt Q9Y239); assay: NOD1 signaling inhibitors, SAR follow-up, revised (AID 2333); format: functional
T2 sequence (Q9Y239 whole entry): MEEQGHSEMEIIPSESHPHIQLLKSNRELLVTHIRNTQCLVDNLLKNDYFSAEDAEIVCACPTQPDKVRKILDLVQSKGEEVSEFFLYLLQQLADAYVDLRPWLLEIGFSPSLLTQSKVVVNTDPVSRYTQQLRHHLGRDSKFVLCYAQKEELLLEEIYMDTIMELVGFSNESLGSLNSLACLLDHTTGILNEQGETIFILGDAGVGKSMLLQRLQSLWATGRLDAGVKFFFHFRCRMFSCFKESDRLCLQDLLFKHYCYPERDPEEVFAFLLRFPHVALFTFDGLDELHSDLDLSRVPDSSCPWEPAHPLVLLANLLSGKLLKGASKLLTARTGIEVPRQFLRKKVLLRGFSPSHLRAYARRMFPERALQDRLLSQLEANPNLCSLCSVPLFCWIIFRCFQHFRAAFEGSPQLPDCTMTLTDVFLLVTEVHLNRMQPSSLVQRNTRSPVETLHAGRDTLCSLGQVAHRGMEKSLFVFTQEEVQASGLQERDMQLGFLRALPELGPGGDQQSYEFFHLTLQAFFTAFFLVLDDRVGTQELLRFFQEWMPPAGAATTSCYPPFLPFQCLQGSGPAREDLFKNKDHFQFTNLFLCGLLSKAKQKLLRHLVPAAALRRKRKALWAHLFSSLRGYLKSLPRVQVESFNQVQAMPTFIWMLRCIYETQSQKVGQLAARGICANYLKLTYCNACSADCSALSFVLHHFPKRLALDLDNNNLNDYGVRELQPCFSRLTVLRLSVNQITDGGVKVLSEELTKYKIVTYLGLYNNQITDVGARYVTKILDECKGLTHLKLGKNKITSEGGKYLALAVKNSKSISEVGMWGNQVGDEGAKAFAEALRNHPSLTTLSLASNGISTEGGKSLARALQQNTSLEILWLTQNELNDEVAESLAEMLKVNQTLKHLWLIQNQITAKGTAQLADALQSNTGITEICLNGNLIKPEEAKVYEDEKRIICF

[5] = target: Tumor necrosis factor (Homo sapiens, UniProt P01375); assay: TNFa-triggered NF-kB activation inhibitors, SAR follow-up, cell-based, revised (AID 2337); format: functional
[6] = system: HEK293; assay: cells; conditions: Homo sapiens;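 also: cells exposed to compound for 14 hours overnight before viability readout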
[7] = target: Estrogen receptor beta (Homo sapiens, UniProt Q92731); assay: ERβ–SRC-3 coactivator interaction inhibitors, confirmation, orthogonal assay, biochemical, ELISA, streptavidin-HRP readout (AID 1060)
[8] = target: Induced myeloid leukemia cell differentiation protein Mcl-1 (Homo sapiens, UniProt Q07820); format: functional
[9] = target: T3, Estrogen receptor (Homo sapiens, UniProt P03372); assay: potentiators of ERα–SRC-1 coactivator binding, dose response, biochemical, TR-FRET, ERα LBD (AID 737)
T3 sequence (P03372 whole entry): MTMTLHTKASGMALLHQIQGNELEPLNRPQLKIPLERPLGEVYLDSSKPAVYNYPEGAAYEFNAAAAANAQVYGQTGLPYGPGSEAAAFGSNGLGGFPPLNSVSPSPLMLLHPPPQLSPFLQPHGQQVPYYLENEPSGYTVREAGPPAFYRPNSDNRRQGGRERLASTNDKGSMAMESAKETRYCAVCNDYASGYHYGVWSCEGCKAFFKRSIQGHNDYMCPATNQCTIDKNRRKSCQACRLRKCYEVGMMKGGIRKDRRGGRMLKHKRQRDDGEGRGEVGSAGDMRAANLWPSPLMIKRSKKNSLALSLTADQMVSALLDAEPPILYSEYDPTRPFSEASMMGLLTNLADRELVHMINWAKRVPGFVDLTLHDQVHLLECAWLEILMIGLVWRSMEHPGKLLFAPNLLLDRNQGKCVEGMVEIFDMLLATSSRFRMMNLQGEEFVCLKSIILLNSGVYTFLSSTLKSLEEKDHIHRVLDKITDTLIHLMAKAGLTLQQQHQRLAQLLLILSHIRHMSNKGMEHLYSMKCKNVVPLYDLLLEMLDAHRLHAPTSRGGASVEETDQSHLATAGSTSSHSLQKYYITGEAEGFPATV

[10] = system: HeLa; assay: HeLa cell cytotoxicity, dose response, cytotoxicity control, 24 h, cherry-picked samples (AID 504726); format: functional, cell-based; conditions: Homo sapiens;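 also: potency for cytotoxicity as loss of luminescence signal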
[11] = target: DNA (cytosine-5)-methyltransferase 1 (Homo sapiens, UniProt P26358); assay: DNMT1 methyltransferase inhibitors, confirmation, biochemical, fluorescent molecular beacon (AID 602386); format: functional
[12] = target: T4, Bcl-2-like protein 10 (Homo sapiens, UniProt Q9HD36); assay: displacers of TR3 peptide from Bcl-B, primary screen, selectivity assay for Bfl-1 inhibitor project, biochemical, fluorescence polarization, FITC-TR3 peptide (AID 748);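 also: fluorescence polarization from a fluorescein-labelled TR3 peptide binding purified Bcl-B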
T4 sequence (Q9HD36 whole entry): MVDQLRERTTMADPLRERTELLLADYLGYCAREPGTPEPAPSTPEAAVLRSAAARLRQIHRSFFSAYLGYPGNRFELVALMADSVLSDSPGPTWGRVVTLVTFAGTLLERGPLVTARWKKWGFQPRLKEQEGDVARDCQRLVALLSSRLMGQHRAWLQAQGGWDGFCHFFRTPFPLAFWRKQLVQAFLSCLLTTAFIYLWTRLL

[13] = target: Acyl-homoserine lactone acylase PvdQ (Pseudomonas aeruginosa (strain LESB58), UniProt Q9I194); assay: P. aeruginosa PvdQ acylase inhibitors, dose response, biochemical, fluorescence, plate reader and imaging, cherry-picks (AID 493231)
[14] = enhancers of respiration in Yfh1-depleted yeast, dose response, Friedreich's ataxia, plus single-dose screen (AID 1465); format: functional;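 also: yeast depleted of Yfh1p frataxin homolog grown on glycerol needing respiration; WST-1 tetrazolium dye reduction as measure of cellular dehydrogenase metabolic activity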
[15] = inhibitors of SNCA 5'UTR-driven reporter translation, confirmation, H4 neuroglioma cells, luminescence (AID 1988); format: functional, cell-based
[16] = inhibitors of firefly luciferase expression or activity, dose response, H4 neuroglioma cells, luminescence (AID 1990); format: functional, cell-based
[17] = Luminescence Cell-Based Dose Response HTS to Identify Inhibitors of 5'UTR Stem-Loop Driven Prion Protein mRNA Translation in H4 Neuroglioblastoma Cells. [Related pubchem assays: 1827 (Project Summary), 1813 (Primary HTS)]; format: functional
[18] = HEp-2 cell cytotoxicity, dose response, cytotoxicity control for RSV inhibitor project, HTS (AID 2410); format: functional; conditions: human respiratory syncytial virus
[19] = cells
[20] = target: Cytochrome P450 3A4 (Homo sapiens, UniProt P08684); conditions: Potency;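 also: confirmatory qHTS run detecting inhibitors and substrates of CYP3A4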
[21] = target: Cytochrome P450 2C9 (Homo sapiens, UniProt P11712); conditions: Potency
[22] = target: T5, Carboxy-terminal domain RNA polymerase II polypeptide A small phosphatase 1 (Homo sapiens, UniProt Q9GZU7); assay: inhibitors of CTDSP1, concentration-response testing, biochemical assay, absorbance-based, actives from ultra-high-throughput screening (AID 540297); format: functional
T5 sequence (Q9GZU7 whole entry): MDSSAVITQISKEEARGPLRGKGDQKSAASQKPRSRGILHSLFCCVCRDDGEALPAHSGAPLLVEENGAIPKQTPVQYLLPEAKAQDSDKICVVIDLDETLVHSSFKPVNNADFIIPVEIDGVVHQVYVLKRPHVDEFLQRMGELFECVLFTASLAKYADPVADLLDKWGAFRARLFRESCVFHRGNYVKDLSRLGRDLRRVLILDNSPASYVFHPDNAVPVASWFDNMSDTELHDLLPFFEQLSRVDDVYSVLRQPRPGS

[23] = target: Melanin-concentrating hormone receptor 1 (Homo sapiens, UniProt Q99705); assay: Late-stage fluorescence-based counterscreen for antagonists of the G-protein coupled receptor 7 (GPR7): cell-based dose response assay to identify antagonists of the melanin-concentrating hormone receptor 1 (MCHR1). [Related pubchem assays (depositor defined):AID1861, AID1880, AID1952, AID2148, AID2251, AID2257, AID485339]; format: functional;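 also: stimulated with 30 nM MCH peptide agonist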
Sequence of Melanin-concentrating hormone receptor 1 (Q99705 whole entry): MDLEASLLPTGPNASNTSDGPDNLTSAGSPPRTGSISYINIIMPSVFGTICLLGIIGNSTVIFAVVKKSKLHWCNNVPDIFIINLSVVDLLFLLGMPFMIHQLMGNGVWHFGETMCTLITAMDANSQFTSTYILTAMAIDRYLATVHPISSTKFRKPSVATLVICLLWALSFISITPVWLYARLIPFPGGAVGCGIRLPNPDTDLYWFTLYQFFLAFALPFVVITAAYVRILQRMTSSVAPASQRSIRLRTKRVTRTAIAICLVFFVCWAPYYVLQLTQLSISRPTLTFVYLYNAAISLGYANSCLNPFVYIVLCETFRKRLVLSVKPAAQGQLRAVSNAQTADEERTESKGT

Sequence of Estrogen receptor beta (Q92731 whole entry): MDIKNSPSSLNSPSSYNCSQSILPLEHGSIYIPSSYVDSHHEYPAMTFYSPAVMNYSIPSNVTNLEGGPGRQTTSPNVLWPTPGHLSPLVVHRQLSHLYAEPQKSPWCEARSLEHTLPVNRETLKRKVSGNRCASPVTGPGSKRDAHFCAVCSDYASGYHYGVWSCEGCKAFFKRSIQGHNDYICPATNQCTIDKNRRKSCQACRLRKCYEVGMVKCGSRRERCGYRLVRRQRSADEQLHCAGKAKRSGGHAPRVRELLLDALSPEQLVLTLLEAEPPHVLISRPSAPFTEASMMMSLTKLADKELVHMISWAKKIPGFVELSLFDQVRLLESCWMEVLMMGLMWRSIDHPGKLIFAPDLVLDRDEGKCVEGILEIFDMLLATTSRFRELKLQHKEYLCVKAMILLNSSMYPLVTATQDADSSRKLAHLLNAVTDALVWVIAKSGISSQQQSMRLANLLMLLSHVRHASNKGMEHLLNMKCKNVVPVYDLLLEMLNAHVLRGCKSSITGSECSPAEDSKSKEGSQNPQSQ
Sequence of Acyl-homoserine lactone acylase PvdQ (Q9I194 24-193 limits assumed): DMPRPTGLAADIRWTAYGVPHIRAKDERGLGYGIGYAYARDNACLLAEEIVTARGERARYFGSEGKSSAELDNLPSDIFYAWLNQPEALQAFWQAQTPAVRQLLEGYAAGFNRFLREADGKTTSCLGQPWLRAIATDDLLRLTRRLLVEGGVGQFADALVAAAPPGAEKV
Sequence of Acyl-homoserine lactone acylase PvdQ (Q9I194 217-762 limits assumed): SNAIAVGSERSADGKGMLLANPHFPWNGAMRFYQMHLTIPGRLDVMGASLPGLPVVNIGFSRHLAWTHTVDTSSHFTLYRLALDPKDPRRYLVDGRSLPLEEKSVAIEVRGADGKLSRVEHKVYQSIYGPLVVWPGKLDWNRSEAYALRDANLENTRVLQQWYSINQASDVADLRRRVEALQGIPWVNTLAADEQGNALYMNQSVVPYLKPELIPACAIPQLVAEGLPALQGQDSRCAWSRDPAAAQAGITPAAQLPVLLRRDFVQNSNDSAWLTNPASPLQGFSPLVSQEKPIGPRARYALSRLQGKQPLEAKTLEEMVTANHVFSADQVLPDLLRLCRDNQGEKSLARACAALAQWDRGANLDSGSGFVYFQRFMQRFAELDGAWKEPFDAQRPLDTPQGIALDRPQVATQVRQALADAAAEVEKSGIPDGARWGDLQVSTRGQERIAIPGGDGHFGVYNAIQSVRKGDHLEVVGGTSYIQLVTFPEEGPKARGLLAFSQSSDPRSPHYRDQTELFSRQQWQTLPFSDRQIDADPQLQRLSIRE
Sequence of Tumor necrosis factor (P01375 whole entry): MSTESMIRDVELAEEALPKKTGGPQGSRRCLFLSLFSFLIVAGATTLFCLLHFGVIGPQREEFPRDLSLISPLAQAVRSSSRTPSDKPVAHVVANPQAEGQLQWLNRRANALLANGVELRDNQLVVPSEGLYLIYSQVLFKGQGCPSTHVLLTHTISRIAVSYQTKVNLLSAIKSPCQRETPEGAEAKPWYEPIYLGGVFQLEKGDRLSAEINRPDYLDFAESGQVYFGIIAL
Sequence of Nucleotide-binding oligomerization domain-containing protein 2 (Q9HC29 whole entry, the tested form may be a part): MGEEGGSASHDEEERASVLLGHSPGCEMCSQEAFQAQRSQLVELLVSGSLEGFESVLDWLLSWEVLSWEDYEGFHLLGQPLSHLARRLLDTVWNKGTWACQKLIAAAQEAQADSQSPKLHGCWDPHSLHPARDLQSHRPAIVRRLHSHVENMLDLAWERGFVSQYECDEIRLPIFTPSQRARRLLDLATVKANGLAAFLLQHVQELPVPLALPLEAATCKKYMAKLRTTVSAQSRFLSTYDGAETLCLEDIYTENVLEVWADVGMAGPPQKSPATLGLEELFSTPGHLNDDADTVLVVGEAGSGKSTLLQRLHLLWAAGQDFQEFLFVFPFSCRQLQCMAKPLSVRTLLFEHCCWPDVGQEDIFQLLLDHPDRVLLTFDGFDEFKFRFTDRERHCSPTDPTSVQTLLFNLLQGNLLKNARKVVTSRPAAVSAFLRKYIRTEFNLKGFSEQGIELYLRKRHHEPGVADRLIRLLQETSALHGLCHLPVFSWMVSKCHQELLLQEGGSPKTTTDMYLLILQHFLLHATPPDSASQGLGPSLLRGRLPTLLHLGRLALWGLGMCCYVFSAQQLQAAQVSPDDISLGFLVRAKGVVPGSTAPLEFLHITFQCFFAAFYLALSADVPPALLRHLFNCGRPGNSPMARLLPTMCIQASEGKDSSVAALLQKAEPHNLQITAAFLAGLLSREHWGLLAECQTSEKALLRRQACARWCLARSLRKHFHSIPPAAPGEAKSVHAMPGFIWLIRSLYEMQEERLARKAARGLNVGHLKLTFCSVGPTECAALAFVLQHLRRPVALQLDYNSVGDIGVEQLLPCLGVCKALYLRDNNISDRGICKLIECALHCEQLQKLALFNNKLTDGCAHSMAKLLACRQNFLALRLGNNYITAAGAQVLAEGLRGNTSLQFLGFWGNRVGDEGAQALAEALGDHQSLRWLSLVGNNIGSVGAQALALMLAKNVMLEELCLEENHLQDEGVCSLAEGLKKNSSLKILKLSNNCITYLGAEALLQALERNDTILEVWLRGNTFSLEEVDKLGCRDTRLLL
Sequence of Cytochrome P450 2C9 (P11712 whole entry, the tested form may be a part): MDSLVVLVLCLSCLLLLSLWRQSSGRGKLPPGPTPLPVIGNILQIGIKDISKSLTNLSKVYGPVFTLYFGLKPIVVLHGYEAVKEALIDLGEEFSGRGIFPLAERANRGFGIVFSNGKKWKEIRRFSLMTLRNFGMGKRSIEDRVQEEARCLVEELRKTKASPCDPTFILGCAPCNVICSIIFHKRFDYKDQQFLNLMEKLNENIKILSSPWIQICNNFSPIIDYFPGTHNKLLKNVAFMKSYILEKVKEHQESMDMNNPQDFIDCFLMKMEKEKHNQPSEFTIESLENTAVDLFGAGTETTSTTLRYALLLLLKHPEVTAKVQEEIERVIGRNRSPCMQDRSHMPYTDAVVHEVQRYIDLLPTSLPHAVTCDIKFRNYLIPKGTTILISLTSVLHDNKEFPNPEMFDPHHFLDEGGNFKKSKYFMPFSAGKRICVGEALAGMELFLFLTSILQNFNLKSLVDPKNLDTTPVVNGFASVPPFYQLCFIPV
Sequence of DNA (cytosine-5)-methyltransferase 1 (P26358 whole entry): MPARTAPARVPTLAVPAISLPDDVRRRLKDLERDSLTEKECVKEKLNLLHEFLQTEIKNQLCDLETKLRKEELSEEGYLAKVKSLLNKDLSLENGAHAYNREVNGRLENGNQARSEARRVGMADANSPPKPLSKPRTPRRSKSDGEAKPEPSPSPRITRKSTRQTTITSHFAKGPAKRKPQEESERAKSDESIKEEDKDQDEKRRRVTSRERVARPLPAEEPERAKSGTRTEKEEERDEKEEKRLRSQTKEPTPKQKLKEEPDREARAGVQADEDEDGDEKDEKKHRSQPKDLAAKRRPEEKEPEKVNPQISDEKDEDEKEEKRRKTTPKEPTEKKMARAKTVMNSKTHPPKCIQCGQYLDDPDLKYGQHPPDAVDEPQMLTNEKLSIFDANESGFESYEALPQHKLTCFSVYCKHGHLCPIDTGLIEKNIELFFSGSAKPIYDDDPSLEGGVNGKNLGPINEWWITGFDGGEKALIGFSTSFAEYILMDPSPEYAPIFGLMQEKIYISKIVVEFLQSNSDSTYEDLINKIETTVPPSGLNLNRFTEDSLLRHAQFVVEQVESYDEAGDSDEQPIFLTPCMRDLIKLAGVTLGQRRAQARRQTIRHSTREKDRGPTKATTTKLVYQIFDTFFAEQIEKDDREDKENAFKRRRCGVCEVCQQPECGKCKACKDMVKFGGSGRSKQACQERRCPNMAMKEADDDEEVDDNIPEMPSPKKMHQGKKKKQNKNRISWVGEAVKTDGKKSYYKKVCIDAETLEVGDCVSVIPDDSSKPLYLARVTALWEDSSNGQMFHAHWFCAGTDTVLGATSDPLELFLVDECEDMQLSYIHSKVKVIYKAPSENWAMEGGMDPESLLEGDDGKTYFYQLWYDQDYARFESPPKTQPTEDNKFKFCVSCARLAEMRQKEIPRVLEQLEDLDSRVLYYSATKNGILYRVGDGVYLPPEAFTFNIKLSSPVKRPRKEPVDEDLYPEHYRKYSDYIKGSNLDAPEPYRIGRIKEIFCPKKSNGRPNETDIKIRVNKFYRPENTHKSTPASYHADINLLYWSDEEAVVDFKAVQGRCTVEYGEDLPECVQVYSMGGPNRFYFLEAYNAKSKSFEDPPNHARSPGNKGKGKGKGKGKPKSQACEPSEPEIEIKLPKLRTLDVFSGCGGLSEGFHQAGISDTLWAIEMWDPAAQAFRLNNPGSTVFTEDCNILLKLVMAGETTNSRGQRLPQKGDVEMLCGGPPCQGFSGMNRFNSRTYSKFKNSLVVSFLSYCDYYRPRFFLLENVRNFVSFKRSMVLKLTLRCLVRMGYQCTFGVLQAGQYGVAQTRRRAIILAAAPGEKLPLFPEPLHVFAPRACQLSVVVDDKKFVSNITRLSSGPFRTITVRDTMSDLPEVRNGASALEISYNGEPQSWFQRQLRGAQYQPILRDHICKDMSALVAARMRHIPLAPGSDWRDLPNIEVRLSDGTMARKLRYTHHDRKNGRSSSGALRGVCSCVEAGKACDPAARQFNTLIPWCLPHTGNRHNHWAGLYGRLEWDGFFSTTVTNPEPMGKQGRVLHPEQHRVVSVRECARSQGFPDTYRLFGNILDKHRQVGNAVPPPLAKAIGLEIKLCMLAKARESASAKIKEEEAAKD

Clc1ccc(CN2C3=NCCN3c3ccccc32)cc1
EC50 [1]: > 50 µM (active) | EC50 [2]: 1.5 µM (active)

COc1ccccc1Nc1cc(C(=O)NCc2cccnc2)c2ccccc2n1
EC50 [1]: > 50 µM (active)

CCOC(=O)c1c(NC(=O)c2cccs2)sc2c1CC(C)(C)OC2
IC50 [3]: > 20 µM (inactive) | IC50 [4]: > 20 µM (inactive) | IC50 [5]: > 20 µM (inactive) | IC50 [6]: > 20 µM (inactive)

CC(C)Cn1c(N)c(C(=O)COC(=O)c2cc(-c3ccco3)nc3ccccc23)c(=O)n(C)c1=O
IC50 [7]: > 50 µM (not active) | IC50 [8]: 2.59 µM (active)

COc1ccc(-c2cn3c(C)c(C(=O)Nc4ccncc4)sc3n2)cc1
EC50 [9]: 18.9 µM (active)

Cc1cccc(N(Cc2ccccc2)C(=O)C2CCN(C(=O)c3ccccc3C)CC2)c1
AC50 [10]: 135 µM (active)

Cc1cccc(OCC(=O)Nc2ccc(N3CCCC3)cc2)c1C
IC50 [11]: > 99 µM (inactive) | IC50 [12]: 96.2 µM (inactive)

NC(=S)N/N=C/c1ccc(-c2ccc([N+](=O)[O-])cc2)o1
AC50 [10]: 84.6 µM (active)

N#Cc1cn(Cc2ccccc2)c2ccccc12
AC50 [13]: 45 µM (active)

CC(C(=O)O)N1C(=O)/C(=C/c2cccn2C)SC1=S (configuration not stated)
EC50 [14]: > 100 µM (active)

COCCn1c(SCC(=O)Nc2ncc(Cl)c(C)c2Cl)nc2ccccc21
IC50 [12]: 90.6 µM (inactive)

O=C(c1cc2nc(-c3ccccc3)cc(-c3ccccc3)n2n1)N1CCC2(CC1)OCCO2
EC50 [15]: 115 µM (active) | EC50 [16]: 24.2 µM (active) | EC50 [17]: 12.9 µM (active) | CC50 [18]: 28.9 µM (active) | IC50 [19]: 3.6 µM (active)

CCCCCC(=O)c1cc(CC(C(=O)OC)C(=O)OC)cc2cc(OC)c(OC)cc12
AC50 [20]: 3.98 µM (inconclusive) | AC50 [21]: 3.16 µM (inconclusive)

COC(=O)C1=C(C)N(Cc2ccccc2)C(=O)N[C@H]1c1ccccc1
CC50 [18]: 33.9 µM (active) | IC50 [19]: 5.02 µM (active)

O=C(Cc1ccccc1)Nc1ccc2oc(-c3cccnc3)nc2c1
EC50 [9]: 21.2 µM (active)

N#CC1=C(N)n2c(s/c(=C\c3ccco3)c2=O)=C(C#N)C1c1ccco1 (configuration not stated)
IC50 [22]: 3.44 µM (active) | IC50 [7]: 1.92 µM (not active)

CC(C)c1ccc(-n2ncc(Cl)c(NCc3ccccc3)c2=O)cc1
IC50 [23]: 6.9 µM (active)

COc1ccc(Oc2c(Cl)cnn(-c3ccc4c(c3)CCCC4)c2=O)cc1
IC50 [23]: 2.1 µM (active)

CCC(C)(C)NC(=O)c1cc([N+](=O)[O-])ccc1N1CCCCC1
AC50 [13]: 13.7 µM (active)

— ChEMBL document CHEMBL1201862, “PubChem BioAssay data set” (2004)
